Data from patent US11186577B2, “Vasopressin receptor antagonists and products and methods related thereto” (BlackThorn Therapeutics, Inc., priority 2017, dated 2021).

How the values were obtained:
[1] = biological target: human Arginine Vasopressin Receptor 1a (AVPR1a) (Homo sapiens (Human), UniProt P37288); assay: Vasopressin V1A receptor antagonist assay (AVP-evoked calcium, FLIPR, CHO-AVPR1a cells); format: cell-based; conditions: read-out: V1a IC50
How it was run: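 Antagonism measured as reduction of AVP (EC80, set each assay day) calcium response on FLIPR in dye-loaded CHO-AVPR1a cells. Compounds, 3 μM top in 10-point 1:3 dilution, in duplicate, added 15 min before agonist at 37° C.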

[2] = biological target: human Oxytocin Receptor (hOTR) (Homo sapiens (Human), UniProt P30559); assay: Oxytocin receptor antagonist assay (oxytocin-evoked calcium, FLIPR, CHEM-1-hOTR cells); format: cell-based; conditions: read-out: OT IC50
How it was run: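 Oxytocin-evoked intracellular calcium rise measured by FLIPR^TETRA fluorescence (Calcium-6 dye, 3 min read) in CHEM-1-hOTR cells. Test compounds, 10-point 1:3 dilutions, were added 15 min at 37 °C before an EC80 oxytocin challenge (EC80 set each assay day); buffer HBSS with 20 mM HEPES.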

MDR1 (P-glycoprotein) = assay: MDR1-MDCK effective efflux assay (Transwell, 10 μM, 1 hour), MDR1-MDCK cells; format: in vitro ADME; conditions: dog, MDCK-MDR1, pH 7.4, Papp AB MDR1
Description: (§1) The MDR1-MDCK effective efflux assay was performed as described in the BioFocus Standard Operating Procedure, ADME-SOP-56. Both wild-type (WT) and MDR1-MDCK cells (Solvo Biotechnology) were seeded onto 24-well Transwell plates at 2.35×10^5 cells per well and used in confluent monolayers after a 3 day culture at 37° C. under 5% CO2. For both cell types, test and control compounds (propranolol, vinblastine) were added (10 μM, 0.1% DMSO final, n=2) to donor compartments of the Transwell plate assembly in assay buffer (Hanks balanced salt solution supplemented with 25 mM HEPES, adjusted to pH 7.4) for both apical to basolateral (A>B) and basolateral to apical (B>A) measurements. Incubations were performed at 37° C., with samples removed from both donor and acceptor chambers at T=0 and 1 hour and compound analysed by mass spectrometry (LC-MS/MS) including an analytical internal standard.
(§2) Where V is the volume of each Transwell compartment (apical 125 basolateral 600 and concentrations are the relative MS responses for compound (normalized to internal standard) in the donor chamber before incubation and acceptor chamber at the end of the incubation. Area=area of cells exposed for drug transfer (0.33 cm2).
(§3) Efflux ratios (Papp B>A/Papp A>B) were calculated for each compound from the mean Papp values in each direction for both wild-type and MDR1-MDCK cells.
(§4) In order to confirm the involvement of MDR1 in any efflux seen, an “effective efflux ratio” (EER) was calculated by comparing compound efflux ratios (ER) in the two cell types, i.e. EER=ER(MDR1−MDCK)/ER(wild-type MDCK)
(§5) This ratio illustrates the effect of the over-expressed MDR1 normalised for the background movement of compound through the wild-type cells.
(§6) Lucifer Yellow (LY) was added to the apical buffer in all wells to assess viability of the cell layer. Compound recovery from the wells was determined from MS responses (normalized to internal standard) in donor and acceptor chambers at the end of incubation compared to response in the donor chamber pre-incubation.

MDR1-MDCK cells = assay: as above; format: in vitro ADME; conditions: MDCK-MDR1
Description: as §1, §2, §3, §4, §5, §6

[3] = MDR1-MDCK effective efflux assay (Transwell, 10 μM, 1 hour), wild-type MDCK cells; format: in vitro ADME; conditions: dog, MDCK, pH 7.4, Papp AB WT
Description: as §1, §2, §3, §4, §5, §6

[4] = test system: wild-type (WT) MDCK cells; assay: as above; format: in vitro ADME; conditions: MDCK
Description: as §1, §2, §3, §4, §5, §6

human Arginine Vasopressin Receptor 1a (AVPR1a), sequence (P37288 whole entry): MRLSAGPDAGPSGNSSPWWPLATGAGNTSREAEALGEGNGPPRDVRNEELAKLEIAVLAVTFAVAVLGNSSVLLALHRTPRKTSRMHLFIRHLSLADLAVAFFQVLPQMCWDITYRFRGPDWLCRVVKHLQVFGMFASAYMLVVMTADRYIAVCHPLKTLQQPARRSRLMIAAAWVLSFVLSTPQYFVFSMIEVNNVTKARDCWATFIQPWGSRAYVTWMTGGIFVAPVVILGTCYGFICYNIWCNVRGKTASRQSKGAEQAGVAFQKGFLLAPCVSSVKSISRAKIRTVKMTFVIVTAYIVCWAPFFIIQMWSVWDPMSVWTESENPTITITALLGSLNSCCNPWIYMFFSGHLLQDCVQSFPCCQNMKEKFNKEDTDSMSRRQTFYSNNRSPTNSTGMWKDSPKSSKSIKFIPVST
human Oxytocin Receptor (hOTR), sequence (P30559 whole entry): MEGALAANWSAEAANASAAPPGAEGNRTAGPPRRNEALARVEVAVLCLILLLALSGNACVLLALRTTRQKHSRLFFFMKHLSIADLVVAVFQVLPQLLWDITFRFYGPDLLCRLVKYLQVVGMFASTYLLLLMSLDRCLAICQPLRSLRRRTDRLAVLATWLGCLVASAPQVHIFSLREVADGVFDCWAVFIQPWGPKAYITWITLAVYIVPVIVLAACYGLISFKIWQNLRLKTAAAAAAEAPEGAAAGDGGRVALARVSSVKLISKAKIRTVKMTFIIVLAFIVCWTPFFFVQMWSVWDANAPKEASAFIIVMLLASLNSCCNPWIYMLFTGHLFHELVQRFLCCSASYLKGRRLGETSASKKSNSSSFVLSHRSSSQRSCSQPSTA

SMILES | IC50 [1] [nM] | IC50 [2] [nM] | Papp A→B at 1 h, 10 μM (MDR1 (P-glycoprotein)) [×10⁻⁶ cm/s] | MDR1 EER (MDR1-MDCK cells) | MDR1 ER (MDR1-MDCK cells) | Papp A→B at 1 h, 10 μM [3] [×10⁻⁶ cm/s] | WT ER [4]
O=C(C1CCC1)N1Cc2cc(Cl)ccc2-n2c(nnc2C2CC3(C2)CN(c2ccc(F)cn2)C3)C1 [compound 114] | < 100 | > 1000 | < 7 | + | + | < 7 | +
CC(=O)N1Cc2cc(Cl)ccc2-n2c(nnc2C2CC3(C2)CN(c2ccccn2)C3)C1 [compound 73] | < 100 | > 1000 | < 7 | + | + | 10 to 20 | +
CCC(=O)N1Cc2cc(Cl)ccc2-n2c(nnc2C2CC3(C2)CN(c2cccc(F)n2)C3)C1 [compound 113] | < 100 | > 1000 | < 7 | + | + | > 20 | +++
O=C(C1CC1)N1Cc2cc(Cl)ccc2-n2c(nnc2C2CC3(C2)CN(c2ccc(F)cn2)C3)C1 [compound 74] | < 100 | > 1000 | < 7 | + | + | > 20 | +++
CCC(=O)N1Cc2cc(Cl)ccc2-n2c(nnc2C2CC3(C2)CN(C(=O)C2CC2)C3)C1 [compound 16] | < 100 | > 1000 | < 7 | ++ | + | < 7 | +
O=C(C(F)F)N1Cc2cc(Cl)ccc2-n2c(nnc2C2CC3(C2)CN(c2ccc(F)cn2)C3)C1 [compound 116] | < 100 | > 1000 | < 7 | + | + | > 20 | ++++
O=C(N1Cc2cc(Cl)ccc2-n2c(nnc2C2CC3(C2)CN(c2ccc(F)cn2)C3)C1)C1(F)CC1 [compound 156] | < 100 | > 1000 | 10 to 20 | ++ | + | > 20 | +++
COC(=O)N1Cc2cc(Cl)ccc2-n2c(nnc2C2CC3(C2)CN(c2cccc(C)n2)C3)C1 [compound 115] | < 100 |  | 10 to 20 | + | + | > 20 | +++
CC(=O)N1Cc2cc(Cl)ccc2-n2c(nnc2C2CC3(C2)CN(c2cnccn2)C3)C1 [compound 93] | < 100 | > 1000 | < 7 | + | + | < 7 | +
CC(C)OC(=O)N1Cc2cc(Cl)ccc2-n2c(C3CC4(C3)CN(c3ccncn3)C4)nnc2C1C (centres unmarked) [compound 187] | 100 to 500 |  | > 20 |  | ++ | > 20 | ++++
CC1c2nnc(C3CC4(C3)CN(c3ncc(F)cn3)C4)n2-c2ccc(Cl)cc2CN1C(=O)OC1CC1 (centres unmarked) [compound 192] | < 100 |  | > 20 | +++ | +++ | > 20 | +++
O=C(C1COC1)N1Cc2cc(Cl)ccc2-n2c(nnc2C2CC3(C2)CN(c2ccc(F)cn2)C3)C1 [compound 160] | < 100 |  | < 7 | + | + | < 7 | +
CCC(=O)N1Cc2cc(Cl)ccc2-n2c(nnc2C2CC3(C2)CN(c2cnccn2)C3)C1 [compound 110] | < 100 | > 1000 | < 7 | + | + | 10 to 20 | +
CC1c2nnc(C3CC4(C3)CN(c3ccc(F)cn3)C4)n2-c2ccc(Cl)cc2CN1C(=O)OC1CC(F)(F)C1 (centres unmarked) [compound 193, 3,3-difluorocyclobutyl 8-chloro-1-(2-(5-fluoropyridin-2-yl)-2-azaspiro[3.3]heptan-6-yl)-4-methyl-4H-benzo[f][1,2,4]triazolo[4,3-a][1,4]diazepine-5(6H)-carboxylate] | < 100 | > 1000 | > 20 | +++ | +++ | > 20 | +++
CC1c2nnc(C3CC4(C3)CN(c3ccc(F)cn3)C4)n2-c2ccc(Cl)cc2CN1C(=O)C(F)F (centres unmarked) [compound 176] | < 100 |  | 7 to 10 | + | + | > 20 | ++++
COC(=O)N1Cc2cc(Cl)ccc2-n2c(nnc2C2CC3(C2)CN(c2ncc(F)cn2)C3)C1 [compound 92] | < 100 | > 1000 | 7 to 10 | + | + | > 20 | +++
O=C(C1CC1)N1Cc2cc(Cl)ccc2-n2c(nnc2C2CC3(C2)CN(c2ccccn2)C3)C1 [compound 65] | < 100 | > 1000 | < 7 | + | + | > 20 | ++++
CN1Cc2cc(Cl)ccc2-n2c(nnc2C2CC3(C2)CN(C(=O)C2(F)CC2)C3)C1 [compound 36] | < 100 |  | < 7 | + | + | 10 to 20 | ++
CC(C)OC(=O)N1Cc2cc(Cl)ccc2-n2c(nnc2C2CC3(C2)CN(C(=O)C2(F)CC2)C3)C1 [compound 147] | < 100 |  | < 7 | + | + | < 7 | +
CC(C)OC(=O)N1Cc2cc(Cl)ccc2-n2c(C3CC4(C3)CN(c3ccc(F)cn3)C4)nnc2C1C (centres unmarked) [compound 163] | < 100 |  | > 20 | +++ | +++ | > 20 | ++++
